Data taken from patent publication US20070142386A1, “New 2-substituted, 4-amino-thiazolo[4,5-d] pyrimidines, useful as chemokine receptor antagonists, esp. cx3cr1” (AstraZeneca, priority 2003, published 2007).
Values after ≈ are worked out from the molar mass of the structure shown.

Target: T1, human fractalkine receptor (hCX3CR1) (Homo sapiens, UniProt P49238)
T1 construct: expressed in transfected cells; host or cells: HEKS 293 (human embryonic kidney suspension) cells stably expressing the chimeric G-protein Gαqi5; Membranes were used in the assay
T1 sequence (P49238 1-355): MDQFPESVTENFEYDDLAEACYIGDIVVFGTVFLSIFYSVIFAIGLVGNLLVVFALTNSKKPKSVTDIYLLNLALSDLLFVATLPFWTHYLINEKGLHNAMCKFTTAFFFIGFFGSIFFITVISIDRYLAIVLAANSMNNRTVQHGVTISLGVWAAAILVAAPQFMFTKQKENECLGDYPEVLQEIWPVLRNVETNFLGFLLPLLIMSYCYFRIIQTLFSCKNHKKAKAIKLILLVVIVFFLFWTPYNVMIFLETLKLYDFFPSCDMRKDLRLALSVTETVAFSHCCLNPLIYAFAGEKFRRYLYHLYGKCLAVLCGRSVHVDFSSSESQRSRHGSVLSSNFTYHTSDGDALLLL
Assay: Ligand binding assay (competition binding with [125I]-fractalkine on cell membranes)
Details: not given

SMILES | Ki
CC(C)C[C@H](CO)Nc1nc(OCc2ccccc2)[nH]c2nc(=O)sc1-2 [Example 25, 5-(Benzyloxy)-7-{[(1R)-1-(hydroxymethyl)-3-methylbutyl]amino}[1,3]thiazolo[4,5-d]pyrimidin-2(3H)-one] | 44.6 nM

Same assay, conditions: 10 pM [125I]-fractalkine, membranes of HEKS 293 cells expressing hCX3CR1, 25° C., 24 h; read-out: Ki

SMILES | Ki
CC(C)C[C@H](CO)Nc1nc([S+]([O-])Cc2cccc(F)c2F)nc2[nH]c(=O)sc12 (mixture of isomers) [Example 45, 5-[(2,3-Difluorobenzyl)-(RS,SS)-sulfinyl]-7-{[(1R)-1-(hydroxymethyl)-3-methylbutyl]amino}[1,3]thiazolo[4,5-d]pyrimidin-2(3H)-one] | 38 nM

Tested on: not listed separately
Assay: Solubility assay (0.1M phosphate buffer, pH 7.4, 24 hours)
Type: physicochemical
Details: 100 μM from DMSO stock in 0.1M phosphate buffer, pH 7.4, room temperature, upper limit 100 μM, LOQ 0.1 μM
Description: 100 μM Solutions in duplicate, prepared by dilution from a 10 mM DMSO stock solution of the test compound, were incubated in 0.1M phosphate buffer, pH 7.4, in a 96-well plate (PP plate, 350 μl U-shaped wells, COSTAR) on a plate bed shaker (IKA®-Schuttler MTS-4, IKA Labortechnik) at 300 rpm and room temperature (20-22° C.) for 24 hours.
The solutions were transferred to a MultiScreen™-R4 96-well filtration plate (LCR membrane, 0.4 μm hydrophilic PTFE, non-sterile glass-filled PP plate, 350 μl wells, Millipore) and filtered under vacuum to a 96-well collection plate (PP plate, 350 μl U-shaped wells, COSTAR), called the analyte plate, using Millipore Vacuum Manifold equipment. The analyte plate was covered by heat-sealing with an aluminium foil coated with a PP seal layer (AB-0813, pierceable sealing foil strong, ABgene).
LC-UV-MS analysis was performed using a generic LC method.
Single point quantification was performed against two 100 μM standards of the test compound dissolved in DMSO at the wavelength showing maximum UV absorbance as extracted from the DAD-trace (210-400 nm). The upper limit of the screen method is 100 μM with a LOQ of 0.1 μM.

SMILES | solubility at 24 h
CC(C)C[C@H](CO)N(C)c1nc([S+]([O-])CCc2ccccc2Br)nc2nc(N)sc12 (mixture of isomers) [Example 13, (R)-2-[(2-Amino-5-{[2-(2-bromophenyl)ethyl]-(RS,SS)-sulfinyl}[1,3]thiazolo[4,5-d]pyrimidin-7-yl)(methyl)amino]-4-methylpentan-1-ol] | 33.8 µM (≈ 17.3 µg/mL)

Same assay, conditions: 21 °C, aqueous buffer, kinetic from dmso stock, 100 μM from DMSO stock in 0.1M phosphate buffer, pH 7.4, room temperature, upper limit 100 μM, LOQ 0.1 μM

SMILES | solubility at 24 h
CC(C)C[C@H](CO)Nc1nc([S+]([O-])Cc2cccc(F)c2F)nc2[nH]c(=O)sc12 (mixture of isomers) [Example 45, 5-[(2,3-Difluorobenzyl)-(RS,SS)-sulfinyl]-7-{[(1R)-1-(hydroxymethyl)-3-methylbutyl]amino}[1,3]thiazolo[4,5-d]pyrimidin-2(3H)-one] | > 100 µM
CC(C)C[C@H](CO)Nc1nc(OCCc2ccccc2)nc2nc(N)sc12 [Example 3, (2R)-2-{[2-Amino-5-(2-phenylethoxy)[1,3]thiazolo[4,5-d]pyrimidin-7-yl]amino}-4-methylpentan-1-ol] | 63.6 µM (≈ 24.6 µg/mL)
CC(C)[C@H](CO)Nc1nc(SCc2ccccc2)nc2[nH]c(=O)sc12 [drawing 21 X = S, 5-(Benzylthio)-7-{[(1R)-1-(hydroxymethyl)-2-methylpropyl]amino}[1,3]thiazolo[4,5-d]pyrimidin-2(3H)-one, reference compound] | 8.5 µM (≈ 3.2 µg/mL)
CC(C)C(CO)Nc1nc([S+]([O-])Cc2ccccc2)nc2[nH]c(=O)sc12 [Example 49, 5-[Benzyl-(RSSS)-sulfinyl]-7-{[(1R)-1-(hydroxymethyl)-2-methylpropyl]amino}[1,3]thiazolo[4,5-d]pyrimidin-2(3H)-one] | > 100 µM
COc1cccc(COc2nc(N[C@@H](CO)CC(C)C)c3sc(=O)[nH]c3n2)c1 [Example 26, 7-{[(1R)-1-(Hydroxymethyl)-3-methylbutyl]amino}-5-[(3-methoxybenzyl)oxy][1,3]thiazolo[4,5-d]pyrimidin-2(3H)-one] | 78.5 µM (≈ 31.8 µg/mL)
CC(C)C[C@H](CO)Nc1nc(SCc2cccc(F)c2F)nc2[nH]c(=O)sc12 [drawing 20 X = S, 5-[(2,3-Difluorobenzyl)thio]-7-{[(1R)-1-(hydroxymethyl)-3-methylbutyl]amino}[1,3]thiazolo[4,5-d]pyrimidin-2(3H)-one, reference compound] | 2.1 µM (≈ 0.896 µg/mL)
COc1cccc(COc2nc(N[C@@H](CO)CC(C)C)c3sc(N)nc3n2)c1 [Example 2, (2R)-2-({2-Amino-5-[(3-methoxybenzyl)oxy][1,3]thiazolo[4,5-d]pyrimidin-7-yl}amino)-4-methylpentan-1-ol] | 72.9 µM (≈ 29.4 µg/mL)
CC(C)C[C@H](CO)Nc1nc(OCc2ccccc2)[nH]c2nc(=O)sc1-2 [Example 25, 5-(Benzyloxy)-7-{[(1R)-1-(hydroxymethyl)-3-methylbutyl]amino}[1,3]thiazolo[4,5-d]pyrimidin-2(3H)-one] | 29 µM (≈ 10.9 µg/mL)
CC(C)CC(CO)Nc1nc([S+]([O-])Cc2cccc(F)c2F)nc2[nH]c(=O)cnc12 [Example 24, 2-[(2,3-Difluorobenzyl)-(RS,SS)-sulfinyl]-4-(1R)-1-(hydroxymethyl)-3-methylbutyl]amino}pteridin-7(8H)-one] | 44 µM (≈ 19.2 µg/mL)
CC(C)C[C@H](CO)Nc1nc(SCc2cccc(F)c2F)nc2[nH]c(=O)cnc12 [drawing 17 X = S, 2-[(2,3-Difluorobenzyl)thio]-4-{[(1R)-1-(hydroxymethyl)-3-methylbutyl]amino}pteridin-7(8H)-one, reference compound] | 1.3 µM (≈ 0.548 µg/mL)
CC(C)C[C@H](CO)Nc1nc(SCc2ccccc2)nc2[nH]c(=O)sc12 [drawing 18 X = S, 5-(Benzylthio)-7-{[(1R)-1-(hydroxymethyl)-3-methylbutyl]amino}[1,3]thiazolo[4,5-d]pyrimidin-2(3H)-one, reference compound] | 1.3 µM (≈ 0.508 µg/mL)
